From US20230218710A1, “METHOD OF TREATING CORONAVIRUS INFECTIONS” (priority 2020, published 2023)
Marks after values point to notes of the source that are not given here.

Tests used:
[1] = tested on: LPS-induced tissue damage in the liver; conditions: rats; Zhou et al. 2018; cited from earlier work
[2] = tested on: LPS-induced acute lung injury mouse model; experiment: LPS-induced acute lung injury model in mouse (Example 6); type: in vivo, mice; conditions: 10 nmol/kg i.p.; for Mean (SEM) Lung Weight: normalized to body weight
Procedure: The effect of the peptides of the current invention on acute lung injury can be assessed in an LPS-induced acute lung injury mouse model by monitoring outcomes such as lung weight, fluid accumulation, cytokine secretion in blood or bronchoalveolar lavage fluid (BALF), neutrophil infiltration into lung tissues, and assessment of acute lung injury score by histopathology. Acute lung injury was induced in male C57BL/6 mice (6 to 8 weeks old) by intratracheal administration of 40 μL lipopolysaccharide (LPS) (Sigma Aldrich, St. Louis, Mo.) in PBS at 5 mg/kg. Control animals received intratracheal PBS alone. […] Treatments were administered 1 h prior to LPS for animals designated for sacrifice at 4 h after LPS, or at both 1 h prior to and 6 h after LPS for animals designated for sacrifice at 24 h after LPS. At 4 or 24 hours post LPS administration, tissues were harvested. Lungs were weighed, flushed with Hanks Buffer to provide bronchoalveolar lavage fluid (BALF). Lungs were fixed in 10% neutral buffered formalin (NBF) for histopathology. Tissue slides were stained with hematoxylin and eosin (H&E) and evaluated and scored with light microscopy of 5 representative microscopic fields (100× magnification) scoring on a 0-5 scale using standard methods (Matute-Bello G et al 2011. An Official American Thoracic Society Workshop Report: Features and Measurements of Experimental Acute Lung Injury in Animals. Am J Respir Cell Mol Biol 44:725-38). The average score for five fields was calculated for each animal. Levels of pro-inflammatory cytokines in BALF were determined using a meso scale discovery (MSD) system. Data for test peptides were compared to the vehicle control group. Lung weights were normalized to body weight.

[3] = tested on: LPS-induced acute lung tissue damage; conditions: animals; Petrescu et al. 2010; cited from earlier work
Apelin Receptor (APJ) = biological target: T1, Apelin Receptor (APJ) (Homo sapiens, UniProt P35414); experiment: Activation of Ras in cultured cells overexpressing APJ; type: cell-based; conditions: 50 μM peptide, 1 min; 100 nM Pyr-Apelin-13 = positive control
T1 construct: host or cells: CHO-K1 AGTRL1 Gi cells
T1 sequence (P35414 1-380): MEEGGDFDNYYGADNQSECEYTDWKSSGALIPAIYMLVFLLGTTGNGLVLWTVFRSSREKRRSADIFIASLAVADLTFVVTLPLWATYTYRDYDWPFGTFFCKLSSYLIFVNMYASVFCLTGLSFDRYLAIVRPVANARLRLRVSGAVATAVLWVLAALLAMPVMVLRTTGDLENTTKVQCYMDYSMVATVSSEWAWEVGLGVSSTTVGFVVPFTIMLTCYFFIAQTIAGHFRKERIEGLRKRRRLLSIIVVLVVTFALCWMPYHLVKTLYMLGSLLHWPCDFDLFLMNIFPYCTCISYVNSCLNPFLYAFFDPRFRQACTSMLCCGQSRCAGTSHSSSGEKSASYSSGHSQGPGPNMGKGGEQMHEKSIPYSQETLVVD
Procedure: Peptides were initially prepared as 100× stocks in H2O. […] Following a 1 min incubation, the cells were placed on ice, the supernatant was removed, and washed twice with cold HBSS. The HBSS was removed and the cells were immediately lysed in 150 μl/well of lysis buffer included with Active Ras Detection kit (Cell Signaling Technology; Danvers, Mass.); lysis buffer was supplemented with 1 mM PMSF (Millipore-Sigma; Saint Louis, Mo.) and Halt Protease/Phosphatase Inhibitor Cocktail (Thermo-Fisher; Waltham, Mass.) prior to use. The wells were immediately scraped and lysates transferred to microfuge tubes. The samples were then placed on ice for 10 min. […] Visualization and quantification of Ras recovery (GTP-bound/active Ras) in samples were performed with Azure Biosystems C400 Imager and AzureSpot analysis software (Dublin, Calif.). […] Each data point represents the average of duplicate assays.

[4] = histopathology, 0-5 scale, 24 h after LPS

Compound	Tissue damage in the liver induced by LPS (in words) [1]	Pro-inflammatory Cytokine Level IFNγ ([2]; BALF, 4 h after LPS) [pg/mL]	Pro-inflammatory Cytokine Level IL-1β ([2]; BALF, 4 h after LPS) [pg/mL]	Pro-inflammatory Cytokine Level IL-6 ([2]; BALF, 4 h after LPS) [pg/mL]	Pro-inflammatory Cytokine Level IL-17-A ([2]; BALF, 4 h after LPS) [pg/mL]	Pro-inflammatory Cytokine Level IL-17-C ([2]; BALF, 4 h after LPS) [pg/mL]	Pro-inflammatory Cytokine Level IL-23 ([2]; BALF, 4 h after LPS) [pg/mL]	Pro-inflammatory Cytokine Level KC/GRO ([2]; BALF, 4 h after LPS) [pg/mL]	Pro-inflammatory Cytokine Level TNFα ([2]; BALF, 4 h after LPS) [pg/mL]	Mean (SEM) Alveolar Neutrophil Infiltration Score [2, 4]	Mean (SEM) Interstitial Neutrophil Infiltration Score [2, 4]	Mean (SEM) Composite Lung Injury Score ([2]; histopathology, 24 h after LPS)	Mean (SEM) Lung Weight ([2]; 4 h after LPS)	Mean (SEM) Lung Weight ([2]; 24 h after LPS)	Pulmonary vascular leakage resulting from LPS-induced acute lung tissue damage (in words) [3]	GTP-Ras (% of Positive Control) (Apelin Receptor (APJ)) [%]
CSCC[C@H](NC(=O)[C@@H]1CCCN1C(=O)CNC(=O)[C@H](CCCCN)NC(=O)[C@H](Cc1c[nH]cn1)NC(=O)[C@H](CO)NC(=O)[C@H](CC(C)C)NC(=O)[C@H](CCCNC(=N)N)NC(=O)[C@@H]1CCCN1C(=O)[C@H](CCCNC(=N)N)NC(=O)[C@@H](N)CCC(N)=O)C(=O)N1CCC[C@H]1C(=O)N[C@@H](Cc1ccccc1)C(=O)O [Apelin-13]	attenuated tissue damage in the liver	0.04	123	4540	0.87	1.84	0.68	3210	15500	1.40 (0.21)	1.13 (0.11)	2.58 (0.29)	1.03 (0.03)** g	1.32 (0.03)* g	reduce pulmonary vascular leakage	
(PEG12)KRRLLGLVFQSLCG(dA) [SEQ ID NO: 37 HCl salt] (KRRLLGLVFQSLCGA; N-terminal PEG12, C-terminal D-Ala, HCl salt; (1)..(1) PEG12; (15)..(15) D-Ala)																33.2
